Reference: US4616038A, “Combination of thienamycin-type antibiotics with dipeptidase inhibitors” (Merck & Co., Inc., priority 1985, dated 1986)

Key:
[1] = target: T1, renal dipeptidase (E.C.3.4.13.11) (Sus scrofa, UniProt P22412); assay: Inhibition of glycyldehydrophenylalanine (GDP) hydrolysis by renal dipeptidase in vitro; assay type: biochemical, pig (hog); conditions: concentration producing 50% inhibition; substrate GDP 0.05 mM; pH 7.1; 37° C.; read-out: Ki
T1 construct: solubilized preparation of dipeptidase isolated from hog kidneys; from tissue; host or cells: hog kidney
T1 sequence (P22412 17-409): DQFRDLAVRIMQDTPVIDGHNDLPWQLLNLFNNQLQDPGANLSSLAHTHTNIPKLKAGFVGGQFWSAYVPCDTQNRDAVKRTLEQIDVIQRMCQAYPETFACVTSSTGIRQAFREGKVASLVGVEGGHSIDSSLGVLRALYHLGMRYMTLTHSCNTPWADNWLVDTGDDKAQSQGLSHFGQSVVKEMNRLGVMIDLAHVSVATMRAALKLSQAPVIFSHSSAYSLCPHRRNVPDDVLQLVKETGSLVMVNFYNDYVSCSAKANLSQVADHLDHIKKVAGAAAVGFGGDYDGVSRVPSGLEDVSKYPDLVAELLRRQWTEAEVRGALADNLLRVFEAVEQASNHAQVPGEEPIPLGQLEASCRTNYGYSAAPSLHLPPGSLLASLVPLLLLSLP
Method: This measured the ability of compounds to inhibit hydrolysis of glycyldehydrophenylalanine (GDP) by a solubilized preparation of dipeptidase isolated from hog kidneys The procedure is as follows to a 1 ml. system containing 50 mM "MOPS" (3-(N-morpholino)propanesulfonic acid) buffer, pH 7.1, is added 5 μg of lyophilized enzyme, and the test compound at a final concentration of 0.1 mM. After a five minute incubation at 37° C., GDP is added to a final concentration of 0.05 mM. Incubation is continued for 10 minutes, at 37° C. and hydrolysis of GDP is measured by the change in optical density with time at 275 nm. Inhibition of the enzyme is gauged by comparison to a standard run containing no inhibitor and is expressed as the inhibitor binding constant, Ki.
A 1 ml. system of 50 mM "MOPS" buffer, pH 7.1, is used. To this is added 5 μg of the pig renal enzyme and an amount of the test compound to bring its final concentration to 0.1 mM. After a five minute incubation at 37° C., an amount of GDP is added to bring its final concentration to 0.05 mM. The system is again incubated for 10 minutes, at 37° C. Hydrolysis of GDP is measured by its change in optical density with time at 275 nm. Inhibition of the enzyme is gauged by comparison to a standard run containing no inhibitor and is presented as percent inhibition.

Staphalococcus aureus = assay: Systemic efficacy of thienamycin on the treatment of Staphylococcus aureus infections in the mouse; assay type: in vivo, Staphalococcus aureus (in mouse); conditions: coadministered with thienamycin
renal dipeptidase = target: T2, renal dipeptidase (Sus scrofa, UniProt P22412); assay: Substrate affinity and maximal velocity of hydrolysis by renal dipeptidase; assay type: biochemical, hog; conditions: GDP compared with thienamycin
T2 construct: GPI-anchored disulfide-linked homodimer
T2 sequence (P22412 17-384): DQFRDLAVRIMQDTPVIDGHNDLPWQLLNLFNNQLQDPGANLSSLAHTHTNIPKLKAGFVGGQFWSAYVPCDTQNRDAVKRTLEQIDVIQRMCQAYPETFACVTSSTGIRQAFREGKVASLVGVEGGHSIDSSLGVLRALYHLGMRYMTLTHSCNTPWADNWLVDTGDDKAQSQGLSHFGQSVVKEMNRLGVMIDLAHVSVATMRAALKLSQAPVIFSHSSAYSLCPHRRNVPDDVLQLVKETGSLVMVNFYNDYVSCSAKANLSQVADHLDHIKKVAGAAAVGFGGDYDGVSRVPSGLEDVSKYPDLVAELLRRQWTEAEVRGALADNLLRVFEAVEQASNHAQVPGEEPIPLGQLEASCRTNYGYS

SMILES: C/C=C(\NC(=O)CC(C)C)C(=O)O [Compound 7, Z-2-isovaleramido-2-butenoic acid]
- Ki [1]: 6 µM
- enhancement of systemic antibacterial activity of thienamycin (Staphalococcus aureus): approximately three-fold

SMILES: NCC(=O)NC(=Cc1ccccc1)C(=O)O [GDP, glycyldehydrophenylalanine]
- maximal velocity of hydrolysis by renal dipeptidase (renal dipeptidase): much higher maximal velocity of hydrolysis
